2 compounds from patent US11414406B2, “Antagonists of the muscarinic acetylcholine receptor M4” (Vanderbilt University, priority 2018, dated 2022) can be followed below.

The test system of test [1] is catalepsy induced by the DA receptor antagonist haloperidol. Kind of test: haloperidol-induced catalepsy in mice. It is filed as in vivo. An excerpt: Furthermore, haloperidol-induced catalepsy, a model of parkinsonian motor disability, is reduced in M4 knockout mice as compared to wild-type controls. […] The reversal by scopolamine was uncommonly robust and more pronounced than we observe with agents targeting a number of other targets being evaluated for potential antiparkinsonian effects, including metabotropic glutamate (mGlu) receptors mGlu4 or mGlu5, A2A adenosine receptors, and NMDA receptors. […] Taken together with the extensive studies of M4 modulation of basal ganglia and motor function, these studies provide compelling evidence that M4 is the dominant mAChR subtype involved in the antiparkinsonian effects of non-selective mAChR antagonists and provide support for discovery and development of selective M4 antagonists for treatment of neurodegenerative disease such as PD, dystonia, tardive dyskinesia and other movement disorders.

Test [2] deals with T1, Human M4 (Homo sapiens, UniProt P08173).
T1 construct: expressed in transfected cells
T1 sequence (P08173 1-479): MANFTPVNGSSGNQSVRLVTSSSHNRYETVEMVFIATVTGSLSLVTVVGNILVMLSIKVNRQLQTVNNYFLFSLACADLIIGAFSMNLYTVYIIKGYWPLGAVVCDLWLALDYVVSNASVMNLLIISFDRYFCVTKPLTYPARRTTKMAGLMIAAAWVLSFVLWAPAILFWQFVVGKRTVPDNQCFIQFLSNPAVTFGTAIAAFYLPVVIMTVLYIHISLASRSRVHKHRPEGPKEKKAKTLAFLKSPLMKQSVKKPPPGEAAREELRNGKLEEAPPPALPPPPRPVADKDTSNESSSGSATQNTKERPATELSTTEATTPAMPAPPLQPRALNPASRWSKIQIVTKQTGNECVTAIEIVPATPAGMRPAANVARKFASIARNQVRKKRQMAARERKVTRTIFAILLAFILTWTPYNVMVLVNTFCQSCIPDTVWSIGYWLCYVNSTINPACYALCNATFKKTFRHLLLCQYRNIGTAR
Kind of test: mAChR M4 cell-based functional assay (calcium flux, decrease of EC80 acetylcholine response). As to conditions: M4/Gqi5/CHO-K1 cells; % ACh maximum at 30 μM; read-out: Emin (% ACh maximum at 30 μM). The method, then:
Human M4 cDNA, along with the chimeric G protein Gqi5, were transfected into Chinese hamster ovary (CHO-K1) cells purchased from the American Type Culture Collection using Lipofectamine2000. M4/Gqi5/CHO cells were grown in Ham's F-12 medium containing 10% heat-inactivated fetal bovine serum (FBS), 20 mM HEPES, 500 μg/mL G418 sulfate, and 200 μg/mL Hygromycin B.
For high throughput measurement of agonist-evoked increases in intracellular calcium, CHO-K1 cells stably expressing muscarinic receptors were plated in growth medium lacking G418 and hygromycin at 15,000 cells/20 μL/well in Greiner 384-well black-walled, tissue culture (TC)-treated, clear-bottom plates (VWR). Cells were incubated overnight at 37° C. and 5% CO2. The next day, cells were washed using an ELX 405 (BioTek) with assay buffer; the final volume was then aspirated to 20 μL. Next, 20 μL of a 2.3 μM stock of Fluo-4/acetoxymethyl ester (Invitrogen, Carlsbad, Calif.), prepared as a 2.3 mM stock in DMSO and mixed in a 1:1 ratio with 10% (w/v) Pluronic F-127 and diluted in assay buffer, was added to the wells and the cell plates were incubated for 50 min at 37° C. and 5% CO2. Dye was removed by washing with the ELX 405 and the final volume was aspirated to 20 μL. Compound master plates were formatted in a 10 point concentration-response curve (CRC) format (1:3 dilutions) in 100% DMSO with a starting concentration of 10 or 1 mM using a BRAVO liquid handler (Agilent). Test compound CRCs were then transferred to daughter plates (240 nL) using the Echo acoustic plate reformatter (Labcyte, Sunnyvale, Calif.) and then diluted into assay buffer (40 μL) to a 2× stock using a Thermo Fisher Combi (Thermo Fisher Scientific, Waltham, Mass.).
Calcium flux was measured using the Functional Drug Screening System (FDSS) 6000 or 7000 (Hamamatsu Corporation, Tokyo, Japan) as an increase in the fluorescent static ratio. Compounds were applied to cells (20 μL, 2×) using the automated system of the FDSS at 2 seconds into the protocol and the data were collected at 1 Hz. At 143 s, 10 μL of an EC20 concentration of the muscarinic receptor agonist acetylcholine was added (5×), followed by the addition of 12 μL of an EC80 concentration of acetylcholine at the 268 s time point (5×). Agonist activity was analyzed as a concentration-dependent increase in calcium mobilization upon compound addition. Positive allosteric modulator activity was analyzed as a concentration-dependent increase in the EC20 acetylcholine response. Antagonist activity was analyzed as a concentration-dependent decrease in the EC80 acetylcholine response; for the purposes of the tables herein, an IC50 (inhibitory concentration 50) was calculated as a concentration-dependent decrease of the response elicited by an EC80 concentration of acetylcholine. Concentration-response curves were generated using a four-parameter logistical equation in XLFit curve fitting software (HMS, Bridgewater, N.J.) for Excel (Microsoft, Redmond, Wash.) or Prism (GraphPad Software, Inc., San Diego, Calif.) or the Dotmatics software platform (Dotmatics, Bishop's Stortford, UK).
Compounds were synthesized as described above. Activity (IC50 and Emin) was determined in the inAChR M4 cell-based functional assay as described above and the data are shown in Table 2. The compound numbers correspond to the compound numbers used in Examples 1 and 2 and Tables 1 and 2.
Background: Calcium flux is commonly read through the fluorescence of an indicator in the cells.

With `CN1[C@@H]2C[C@@H](OC(=O)[C@H](CO)c3ccccc3)C[C@H]1[C@@H]1O[C@@H]12` [scopolamine], in test [1] (M4 KO mice), the “reduction of haloperidol-induced catalepsy” value is recorded as “ineffective”. For the same compound, the “reversal of haloperidol-induced catalepsy” value in test [1] (WT mice) is reported as “completely reversed”. For `CC(=O)Nc1ccc(-c2ccc(N[C@H]3[C@@H]4CN(CC5CCOCC5)C[C@@H]43)nn2)cc1` [Compound 19, N-[4-[6-[[(1R,5S,6s)-3-(tetrahydropyran-4-ylmethyl)-3-azabicyclo[3.1.0]hexan-6-yl]amino]pyridazin-3-yl]phenyl]acetamide], the remaining activity at 30 µM in test [2] is 39%.
